Reference: US8207227B2, “Disodium salts, monohydrates, and ethanol solvates for delivering active agents” (Emisphere Technologies, Inc., priority 1999, dated 2012)
Each block holds one molecule with its values, some of them ahead of it.

Legend:
[1] = Oral delivery of low molecular weight heparin (LMWH) with SNAD salts; plasma heparin by anti-Factor Xa assay; format: in vivo, Sprague-Dawley rats; conditions: rats, 3 ml/kg, compound 300 mg/kg, LMWH dose 3000 (mg/kg)
Protocol: The typical dosing and sampling protocols were as follows. Male Sprague-Dawley rats weighing between 275-350 g were fasted for 24 hours and were anesthetized with ketamine hydrochloride (about 88 mg/kg) intramuscularly immediately prior to dosing and again as needed to maintain anesthesia. A dosing group of ten rats was administered one of the dosing solutions. An 11 cm Rusch 8 French catheter was adapted to a 1 ml syringe with a pipette tip. The syringe was filled with dosing solution by drawing the solution through the catheter, which was then wiped dry. The catheter was placed down the esophagus leaving 1 cm of tubing past the incisors. Solution was administered by pressing the syringe plunger.
Oral dosing (PO) compositions containing low molecular weight heparin (LMWH) and either the mono-sodium or di-sodium salt form of the delivery agent compound SNAD were prepared in water. […]
Citrated blood samples were collected by cardiac puncture 0.5, 1.0, 2.0, 3.0 and 4.0 hours after administration. Heparin absorption was verified by an increase in plasma heparin measured by the anti-Factor Xa assay CHROMOSTRATE® Heparin anti-Xa assay, available from Organon Teknika Corporation of Durham, N.C. Baseline values were determined earlier and found to be about zero IU/ml. […]

[2] = Oral delivery of heparin with SNAD salts; plasma heparin by anti-Factor Xa assay; format: in vivo, cynomolgus macaque monkeys; conditions: cynomolgus monkeys, about 150 mg/kg delivery agent and 30 mg/kg heparin
Protocol: The dose for each monkey was about 150 mg/kg of the disodium SNAD ethanol solvate and about 30 mg/kg of heparin. The dosing protocol for administering the capsules to each animal was as follows. […] Water was available throughout the dosing period and 400 ml juice was made available to the animal overnight prior to dosing and throughout the dosing period. The animal was restrained in a sling restraint. A capsule was placed into a “pill gun”, which is a plastic tool with a cocked plunger and split rubber tip to accommodate a capsule. The pill gun was inserted into the esophagus of the animal. The plunger of the pill gun was pressed to push the capsule out of the rubber tip into the esophagus. The pill gun was then retracted. The animal's mouth was held closed and approximately 5 ml reverse osmosis water was administered into the mouth from the side to induce a swallowing reflex. The throat of the animal was rubbed further to induce the swallowing reflex. […] Blood was added to fill the tube to the 1.3 ml line. The tube was then placed on wet ice pending centrifugation. […] Plasma heparin concentrations were determined using the anti-Factor Xa assay CHROMOSTRATE™ heparin anti-Xa assay, available from Organon Teknika Corporation of Durham, N.C. Results from the animals were averaged for each time point. […] Two tablets were dosed to each of approximately 4.0 kg monkeys. […]

[3] = Oral delivery of heparin with SNAC salts; plasma heparin by anti-Factor Xa assay; format: in vivo, Sprague-Dawley rats; conditions: rats, oral gavage, 3 ml/kg, compound 300 mg/kg, heparin 100 mg/kg
Protocol: The typical dosing and sampling protocols were as follows. […] The syringe was filled with dosing solution by drawing the solution through the catheter, which was then wiped dry. The catheter was placed down the esophagus leaving 1 cm of tubing past the incisors. Solution was administered by pressing the syringe plunger.

clotting time (APTT) = assay: Oral delivery of heparin with SNAC salts; clotting time by activated partial thromboplastin time (APTT); format: in vivo, Sprague-Dawley rats; conditions: rats, oral gavage, 3 ml/kg, compound 300 mg/kg, heparin 100 mg/kg; baseline about 20 seconds
Protocol: Oral gavage (PO) dosing solutions containing heparin sodium USP and either the mono-sodium or di-sodium salt form of the delivery agent compound SNAC were prepared in water. The delivery agent compound and heparin (166.9 IU/mg) were mixed by vortex as dry powders. This dry mixture was dissolved in water, vortexed and sonicated at about 37° C. to produce a clear solution. The pH was not adjusted. The final volume was adjusted to about 10.0 ml. The final delivery agent compound dose, heparin dose and dose volume amounts are listed below in Table 2 below.
The typical dosing and sampling protocols were as follows. […]
Citrated blood samples were collected by cardiac puncture 0.25, 0.5, 1.0 and 1.5 hours after administration. Heparin absorption was verified by an increase in clotting time as measured by the activated partial thromboplastin time (APTT) according to the method of Henry, J. B., Clinical Diagnosis and Management by Laboratory Methods, Philadelphia, Pa., W.B. Saunders (1979). […] Heparin absorption was also verified by an increase in plasma heparin measured by the anti-Factor Xa assay CHROMOSTRATE® Heparin anti-Xa assay, available from Organon Teknika Corporation of Durham, N.C. […]

[4] = Oral delivery of sCT/sodium salt of 5-CNAC in rats; serum sCT by EIA kit, modified protocol; format: in vivo, Sprague-Dawley rats; conditions: subcutaneous, sCT 5 mg/kg (so in the source), no delivery agent
Protocol: The rats were administered one of the following: • (4a) orally, one capsule of 13 mg lyophilized powder as prepared as in Example 19 with 0.5 ml of water to flush the capsule down; • (4b) orally, 1.0 ml/kg of a reconstituted aqueous solution of the lyophilized powder prepared in Example 19; • (4c) orally, 1.0 ml/kg of “fresh”, unlyophilized aqueous solution of 5-CNAC sodium salt as prepared in Example 20 with sCT; or • (4d) subcutaneously, 5 mg/kg of sCT.
Doses (4a), (4b) and (4c) contained 50 mg/kg of the sodium salt of 5-CNAC and […] of sCT. Doses for (4a) are approximate because the animals were given one capsule filled with the stated amount of powder based on an average animal weight of 250 g, whereas actual animal weight varied. This is also the case in all later examples where a capsule is dosed.
The reconstituted solution for (4b) was prepared by mixing 150 mg of the lyophilized powder prepared as in Example 19 in 3 ml of water. The reconstituted solution was dosed at […].
The subcutaneous doses were prepared by dissolving 2 mg of sCT in 1 ml water. […]. This solution was dosed at 0.5 ml/kg.
Blood samples were collected serially from the tail artery. […]

Molecule: O=C([O-])CCCCCCCCCNC(=O)c1ccccc1[O-].[Na+].[Na+] [SNAD-di]
Mean Peak Plasma Heparin Concentration (IU/ml) ± SE [1]: 1.21 ± 0.15 IU/ml

Molecule: O=C([O-])CCCCCCCCCNC(=O)c1ccccc1O.[Na+] [monosodium salt of SNAD, Monosodium N-(10-[2-hydroxybenzoyl]amino)decanoate]
Time after administration at which maximum averaged plasma heparin was reached [2]: 2 h
Maximum averaged plasma heparin concentration ([2]; two capsules or two tablets): 0.23±0.19 IU/mL
Mean Peak Plasma Heparin Concentration (IU/ml) ± SE [1]: 0.88 ± 0.17 IU/ml

Mean Peak Factor Xa (IU · ml) ± SE [3]: 2.81 ± 0.17 IU · ml
Molecule: O=C([O-])CCCCCCCNC(=O)c1ccccc1[O-].[Na+].[Na+] [SNAC - di]
Mean Peak APTT (sec) ± SE (clotting time (APTT)): 300 ± 0 s

Molecule: Mono-Sodium N-(8-[(2-hydroxybenzoyl]amino)caprylate [SNAC - mono]
Mean Peak APTT (sec) ± SE (clotting time (APTT)): 247 ± 28.5 s

Mean Peak Serum sCT ± SD ([4]; Table 5, rats): 965 ± 848 pg/mL
Mean Peak Serum sCT ± SD ([4]; Table 6, rats): 273 ± 320 pg/mL
Molecule: CC(C)C[C@H](NC(=O)[C@H](CCCCN)NC(=O)CNC(=O)[C@H](CC(C)C)NC(=O)[C@@H](NC(=O)[C@@H]1CSSC[C@H](N)C(=O)N[C@@H](CO)C(=O)N[C@@H](CC(N)=O)C(=O)N[C@@H](CC(C)C)C(=O)N[C@@H](CO)C(=O)N[C@@H]([C@@H](C)O)C(=O)N1)C(C)C)C(=O)N[C@@H](CO)C(=O)N[C@@H](CCC(N)=O)C(=O)N[C@@H](CCC(=O)O)C(=O)N[C@@H](CC(C)C)C(=O)N[C@@H](Cc1c[nH]cn1)C(=O)N[C@@H](CCCCN)C(=O)N[C@@H](CC(C)C)C(=O)N[C@@H](CCC(N)=O)C(=O)N[C@H](C(=O)N[C@@H](Cc1ccc(O)cc1)C(=O)N1CCC[C@H]1C(=O)N[C@@H](CCCNC(=N)N)C(=O)N[C@H](C(=O)N[C@@H](CC(N)=O)C(=O)N[C@H](C(=O)NCC(=O)N[C@@H](CO)C(=O)NCC(=O)N[C@H](C(=O)N1CCC[C@H]1C(N)=O)[C@@H](C)O)[C@@H](C)O)[C@@H](C)O)[C@@H](C)O [(4d) subcutaneous, salmon calcitonin]
